Experiments:
MDA-MB-157 = assay: Antiproliferative activity against human MDA-MB-157 cells treated for 96 hrs by trypan blue exclusion assay; format: functional, cell-based; details: MDA-MB-157, 96 h
[1] = Inhibition of ACK1 D163E mutant in mouse BaF3 cells; format: cell-based
[2] = Inhibition of ACK1 R806Q mutant in mouse BaF3 cells; format: cell-based
Activated CDC42 kinase 1 [3] = target: T1, Activated CDC42 kinase 1 (Homo sapiens, UniProt Q07912); assay: Inhibition of ACK1 (unknown origin)
Target sequence in this assay (Q07912 whole entry): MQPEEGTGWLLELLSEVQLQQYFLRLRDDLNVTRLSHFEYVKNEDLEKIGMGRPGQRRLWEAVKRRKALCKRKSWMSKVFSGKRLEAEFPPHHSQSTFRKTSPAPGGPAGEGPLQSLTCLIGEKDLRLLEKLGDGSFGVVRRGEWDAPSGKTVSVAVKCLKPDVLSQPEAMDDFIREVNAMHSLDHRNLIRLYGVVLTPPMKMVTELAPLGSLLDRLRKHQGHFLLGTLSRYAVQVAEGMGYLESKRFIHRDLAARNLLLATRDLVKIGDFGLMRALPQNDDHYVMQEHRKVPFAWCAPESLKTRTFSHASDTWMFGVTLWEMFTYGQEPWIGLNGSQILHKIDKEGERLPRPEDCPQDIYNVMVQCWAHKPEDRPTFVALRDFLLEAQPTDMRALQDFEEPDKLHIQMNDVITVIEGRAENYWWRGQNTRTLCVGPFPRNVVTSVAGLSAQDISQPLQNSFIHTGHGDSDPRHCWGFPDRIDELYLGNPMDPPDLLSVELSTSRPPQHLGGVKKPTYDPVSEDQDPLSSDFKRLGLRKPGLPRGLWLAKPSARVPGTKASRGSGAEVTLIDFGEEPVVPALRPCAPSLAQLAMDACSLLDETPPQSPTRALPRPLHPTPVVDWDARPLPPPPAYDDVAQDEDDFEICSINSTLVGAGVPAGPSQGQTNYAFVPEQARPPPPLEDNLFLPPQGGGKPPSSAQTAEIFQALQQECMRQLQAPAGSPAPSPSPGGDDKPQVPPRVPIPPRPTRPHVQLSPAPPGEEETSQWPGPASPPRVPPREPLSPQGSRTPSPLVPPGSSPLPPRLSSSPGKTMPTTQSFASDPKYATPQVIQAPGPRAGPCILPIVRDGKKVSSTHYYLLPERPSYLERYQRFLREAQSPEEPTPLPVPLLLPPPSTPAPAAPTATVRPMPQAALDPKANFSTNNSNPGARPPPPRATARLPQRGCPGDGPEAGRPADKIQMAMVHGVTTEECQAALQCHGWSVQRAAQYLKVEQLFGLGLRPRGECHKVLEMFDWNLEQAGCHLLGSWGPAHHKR

Activated CDC42 kinase 1 [4] = target: T1, Activated CDC42 kinase 1; assay: Inhibition of ACK1 (unknown origin) at 10 uM relative to control
Target sequence in this assay (Q07912 whole entry, looked up): as the sequence (Q07912 whole entry) above

For `CN1CCN(c2ccc(Nc3ncc(Cl)c(NC[C@H]4CCCO4)n3)cc2)CC1`, the IC50 (MDA-MB-157) was 480 nM.

Molecule `Cc1nc(Nc2ncc(C(=O)Nc3c(C)cccc3Cl)s2)cc(N2CCN(CCO)CC2)n1` [DASATINIB] has an IC50 [1] of 0.1 nM and an IC50 [2] of 1.3 nM.

Work on `Cc1cc(Nc2ncc(Cl)c(Nc3ccccc3S(=O)(=O)C(C)C)n2)c(OC(C)C)cc1C1CCNCC1` [CERITINIB] yielded an IC50 (Activated CDC42 kinase 1 [3]) of 33.6 nM.

In the case of `C=CC(=O)Nc1cc(Nc2nccc(-c3cn(C)c4ccccc34)n2)c(OC)cc1N(C)CCN(C)C` [OSIMERTINIB], the IC50 (Activated CDC42 kinase 1 [3]) is reported as 71 nM.

`CN1CC[C@H](c2c(O)cc(O)c3c(=O)cc(-c4ccccc4Cl)oc23)[C@H](O)C1` [ALVOCIDIB] showed an IC50 (Activated CDC42 kinase 1 [3]) of under 20000 nM and an inhibition (Activated CDC42 kinase 1 [4]) of 74%.

Molecule `CCN(CC)CCNC(=O)c1c(C)[nH]c(/C=C2\C(=O)Nc3ccc(F)cc32)c1C` has an inhibition (Activated CDC42 kinase 1 [4]) of 33%.

For `CN1c2ccccc2C(=O)Nc2cnc(Nc3ccc(N4CCC(O)CC4)cc3)nc21`, the IC50 [1] was 16 nM and the IC50 [2] was 77 nM.

Work on `COc1cc(N2CCN(C)CC2)ccc1Nc1ncc2c(n1)N(C)c1ccccc1C(=O)N2` yielded an IC50 [1] of 38 nM and an IC50 [2] of 113 nM.

Molecule `COc1cc2ncnc(Nc3ccc(F)c(Cl)c3)c2cc1OCCCN1CCOCC1` has an inhibition (Activated CDC42 kinase 1 [4]) of 77%.

`CNc1cc2c(Nc3cccc(Br)c3)ncnc2cn1` showed an IC50 (Activated CDC42 kinase 1 [3]) of 200 nM.
